Results as given in patent publication US20160039880A1 (priority 2012, published 2016).
Read-outs that look alike come from different tables or passages of the source.

How the values were obtained:
[1] = target: Calcineurin (Homo sapiens, UniProt P62937+P63098+Q08209); assay: Calcineurin Phosphatase (CaN) Assay with Cyp A (+CypA); details: read-out: Calcineurin Phosphatase (CaN) Assay (+CypA) IC50, in the presence of Cyp A
[2] = target: T1, Human recombinant cyclophilin A (Cyp A) (Homo sapiens, UniProt P62937); assay: Protease-free PPIase assay; details: read-out: Protease-free PPIase Assay Ki; Cyclophilin A (Cyp A) inhibitory activity;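 note: cis to trans isomerization of SUC-AAPF-pNA by 2 nM enzyme, read as absorbance at 330 nm over 300 s at 10 °C, catalytic rate corrected for uncatalyzed background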
[3] = Water Solubility Assay (measured in pH 7.8 buffer); assay type: physicochemical;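 note: precipitation onset detected as rise in absorbance at 650 nm across increasing concentrations, after shaking for 18 h, blank wells receiving DMSO only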
[4] = target: T1, Human recombinant cyclophilin A (Cyp A)
[5] = pH 7.8, read-out: Water Solubility Assay
[6] = 35 mM HEPES pH 7.8, 1% DMSO, 25 °C, 18 h, read-out: Water Solubility Assay, concentration at which the compound remains in solution

T1 sequence (P62937 whole entry): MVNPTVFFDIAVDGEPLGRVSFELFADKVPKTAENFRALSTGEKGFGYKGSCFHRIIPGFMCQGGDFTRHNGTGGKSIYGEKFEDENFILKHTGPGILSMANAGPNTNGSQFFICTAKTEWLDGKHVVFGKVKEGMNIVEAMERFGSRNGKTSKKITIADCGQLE
Sequence of Calcineurin (P63098 whole entry, other chains not shown): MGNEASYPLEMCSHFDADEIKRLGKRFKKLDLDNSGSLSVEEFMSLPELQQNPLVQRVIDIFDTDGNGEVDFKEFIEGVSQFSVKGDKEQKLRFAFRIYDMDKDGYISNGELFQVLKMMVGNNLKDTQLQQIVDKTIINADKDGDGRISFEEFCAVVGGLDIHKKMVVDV
Sequence of Calcineurin (P62937 whole entry, other chains not shown): as the sequence (P62937 whole entry) above

Compound | Ki [4] | further results
CCC1NC(=O)C(C(O)C(C)CCN2CCn3cc(C(F)(F)F)nc3C2)N(C)C(=O)C(C(C)C)N(C)C(=O)C(CC(C)C)N(C)C(=O)C(CC(C)C)N(C)C(=O)C(C)NC(=O)C(C)NC(=O)C(CC(C)C)N(C)C(=O)C(C(C)C)NC(=O)C(CC(C)C)N(C)C(=O)C(C)N(C)C1=O [Compound EE, [(3R,4R,5S)-4-Hydroxy-3-methyl-5-(methylamino)-1-(2-trifluoromethyl-5,6-dihydro-8H-imidazo[1,2-a]pyrazin-7-yl)-hexanoic acid]^1[(R)-methyl-Sar]^3 cyclosporin A] | – | IC50 [1]: > 10000 nM; Ki [2]: 9.1 nM
CCC1NC(=O)C(C(O)C(C)CCCC(=O)NCCS(=O)(=O)N(C)C)N(C)C(=O)C(C(C)C)N(C)C(=O)C(CC(C)C)N(C)C(=O)C(CC(C)C)N(C)C(=O)C(C)NC(=O)C(C)NC(=O)C(CC(C)C)N(C)C(=O)C(C(C)C)NC(=O)C(CC(C)C)N(C)C(=O)C(C)N(C)C1=O [Compound W, [(5R,6R,7S)-6-hydroxy-5-methyl-7-(methylamino)-1-(2-{sulfonic acid dimethylamide}-ethylamino)-1-oxo-octanoic acid]^1[(R)-methyl-Sar]^3 cyclosporin A] | 1.9 nM | solubility at 18 h [3, 6]: >100 µM
CC[C@H]1NC(=O)[C@@H]([C@H](O)[C@H](C)CCN2CCOCC2)N(C)C(=O)[C@@H](C(C)C)N(C)C(=O)[C@@H](CC(C)C)N(C)C(=O)[C@@H](CC(C)C)N(C)C(=O)[C@H](C)NC(=O)[C@@H](C)NC(=O)[C@@H](CC(C)C)N(C)C(=O)[C@@H](C(C)C)NC(=O)[C@H](CC(C)C)N(C)C(=O)[C@@H](SC)N(C)C1=O [Compound K, [(3R,4R,5S)-4-hydroxy-3-methyl-5-(methylamino)-1-N-morpholino-hexanoic acid]^1[(S)-thiomethyl-Sar]^3 cyclosporin A] | – | IC50 ([1]; 1:1 complex with inhibitor): > 10000 nM
CC[C@H]1NC(=O)[C@@H]([C@H](O)[C@H](C)CCCC(=O)N2CCOCC2)N(C)C(=O)[C@@H](C(C)C)N(C)C(=O)[C@@H](CC(C)C)N(C)C(=O)[C@@H](CC(C)C)N(C)C(=O)[C@H](C)NC(=O)[C@@H](C)NC(=O)[C@@H](CC(C)C)N(C)C(=O)[C@@H](C(C)C)NC(=O)[C@H](CC(C)C)N(C)C(=O)CN(C)C1=O [Compound E, [(5R,6R,7S)-6-hydroxy-5-methyl-7-(methylamino)-1-N-morpholino-1-oxo-octanoic acid]^1 cyclosporin A] | – | IC50 ([1]; 1:1 complex with inhibitor): > 10000 nM
CC[C@H]1NC(=O)[C@@H]([C@H](O)[C@H](C)CCN2CCOCC2)N(C)C(=O)[C@@H](C(C)C)N(C)C(=O)[C@@H](CC(C)C)N(C)C(=O)[C@@H](CC(C)C)N(C)C(=O)[C@H](C)NC(=O)[C@@H](C)NC(=O)[C@@H](CC(C)C)N(C)C(=O)[C@@H](C(C)C)NC(=O)[C@H](CC(C)C)N(C)C(=O)[C@@H](C)N(C)C1=O [Compound F, [(3R,4R,5S)-4-(hydroxy)-3-methyl-5-(methylamino)-1-(morpholin-4-yl)hexanoic acid]^1[(R)-Me-Sar]^3 cyclosporin A] | 4.5 nM | –
CCC1NC(=O)C(C(O)C(C)CCNCCc2c[nH]cn2)N(C)C(=O)C(C(C)C)N(C)C(=O)C(CC(C)C)N(C)C(=O)C(CC(C)C)N(C)C(=O)C(C)NC(=O)C(C)NC(=O)C(CC(C)C)N(C)C(=O)C(C(C)C)NC(=O)C(CC(C)C)N(C)C(=O)C(C)N(C)C1=O [Compound AK, [(3R,4R,5S)-4-Hydroxy-3-methyl-5-(methylamino)-1-(2-{1H-imidazol-4-yl}-ethylamino)-hexanoic acid]^1[(R)-methyl-Sar]^3 cyclosporin A] | 42 nM | –
CC[C@H]1NC(=O)[C@@H]([C@H](O)[C@H](C)CCNCCOC)N(C)C(=O)[C@@H](C(C)C)N(C)C(=O)[C@@H](CC(C)C)N(C)C(=O)[C@@H](CC(C)C)N(C)C(=O)[C@H](C)NC(=O)[C@@H](C)NC(=O)[C@@H](CC(C)C)N(C)C(=O)[C@@H](C(C)C)NC(=O)[C@H](CC(C)C)N(C)C(=O)[C@@H](C)N(C)C1=O [Compound AF, [(3R,4R,5S)-4-Hydroxy-3-methyl-5-(methylamino)-1-(2-methoxyethylamino)-hexanoic acid]^1[(R)-methyl-Sar]^3 cyclosporin A] | 28 nM | –
CCC1NC(=O)C(C(O)C(C)CCN2CCCN(C)CC2)N(C)C(=O)C(C(C)C)N(C)C(=O)C(CC(C)C)N(C)C(=O)C(CC(C)C)N(C)C(=O)C(C)NC(=O)C(C)NC(=O)C(CC(C)C)N(C)C(=O)C(C(C)C)NC(=O)C(CC(C)C)N(C)C(=O)C(C)N(C)C1=O [Compound EG, [[(3R,4R,5S)-4-Hydroxy-3-methyl-5-(methylamino)-1-(4-methyl-[1,4]diazepan-1-yl)-hexanoic acid]^1[(R)-methyl-Sar]^3 cyclosporin A] | 8.2 nM | solubility at 18 h [3, 5]: >100 µM
CCC1NC(=O)C(C(O)C(C)CCCN2CCOCC2)N(C)C(=O)C(C(C)C)N(C)C(=O)C(CC(C)C)N(C)C(=O)C(CC(C)C)N(C)C(=O)C(C)NC(=O)C(C)NC(=O)C(CC(C)C)N(C)C(=O)C(C(C)C)NC(=O)C(CC(C)C)N(C)C(=O)CN(C)C1=O [Compound EI, [(4R,5R,6S)-5-Hydroxy-4-methyl-6-(methylamino)-1-(morpholin-4-yl)-heptanoic acid]^1 cyclosporin A] | 14 nM | –
CC[C@H]1NC(=O)[C@@H]([C@H](O)[C@H](C)CCN(C)CC2COCCO2)N(C)C(=O)[C@@H](C(C)C)N(C)C(=O)[C@@H](CC(C)C)N(C)C(=O)[C@@H](CC(C)C)N(C)C(=O)[C@H](C)NC(=O)[C@@H](C)NC(=O)[C@@H](CC(C)C)N(C)C(=O)[C@@H](C(C)C)NC(=O)[C@H](CC(C)C)N(C)C(=O)[C@@H](C)N(C)C1=O (stereo partly drawn) [Compound AJ, [(3R,4R,5S)-4-Hydroxy-3-methyl-5-(methylamino)-1-(1,4-dioxan-2-ylmethyl)methylamino-hexanoic acid]^1[(R)-methyl-Sar]^3 cyclosporin A] | 12 nM | –

Second part, led by results:

Ki [4] | Compound | further results
17 nM | CCC1NC(=O)C(C(O)C(C)CCN2CC(OC)C2)N(C)C(=O)C(C(C)C)N(C)C(=O)C(CC(C)C)N(C)C(=O)C(CC(C)C)N(C)C(=O)C(C)NC(=O)C(C)NC(=O)C(CC(C)C)N(C)C(=O)C(C(C)C)NC(=O)C(CC(C)C)N(C)C(=O)C(C)N(C)C1=O [Compound EH, [[(3R,4R,5S)-4-Hydroxy-1-(3-methoxy-azetidin-1-yl)-3-methyl-5-(methylamino)-hexanoic acid]^1[(R)-methyl-Sar]^3 cyclosporin A] | solubility at 18 h [3, 5]: >100 µM
2 nM | CC[C@H]1NC(=O)[C@@H]([C@H](O)[C@H](C)CCCC(=O)N2CCS(=O)(=O)CC2)N(C)C(=O)[C@@H](C(C)C)N(C)C(=O)[C@@H](CC(C)C)N(C)C(=O)[C@@H](CC(C)C)N(C)C(=O)[C@H](C)NC(=O)[C@@H](C)NC(=O)[C@@H](CC(C)C)N(C)C(=O)[C@@H](C(C)C)NC(=O)[C@H](CC(C)C)N(C)C(=O)[C@@H](C)N(C)C1=O [Compound Z, [(5R,6R,7S)-6-hydroxy-5-methyl-7-(methylamino)-1-({1,1-dioxo}thiomorpholin-4-yl)-1-oxo-octanoic acid]^1[(R)-methyl-Sar]^3 cyclosporin A] | solubility at 18 h [3, 6]: >100 µM
2.3 nM | CC[C@H]1NC(=O)[C@@H]([C@H](O)[C@H](C)CCCC(=O)NCC2COCCO2)N(C)C(=O)[C@@H](C(C)C)N(C)C(=O)[C@@H](CC(C)C)N(C)C(=O)[C@@H](CC(C)C)N(C)C(=O)[C@H](C)NC(=O)[C@@H](C)NC(=O)[C@@H](CC(C)C)N(C)C(=O)[C@@H](C(C)C)NC(=O)[C@H](CC(C)C)N(C)C(=O)[C@@H](C)N(C)C1=O (some centres unmarked) [Compound ZX] | solubility at 18 h [3, 6]: >100 µM
5.7 nM | CC[C@H]1NC(=O)[C@@H]([C@H](O)[C@H](C)CCCC(=O)NCCOC)N(C)C(=O)[C@@H](C(C)C)N(C)C(=O)[C@@H](CC(C)C)N(C)C(=O)[C@@H](CC(C)C)N(C)C(=O)[C@H](C)NC(=O)[C@@H](C)NC(=O)[C@@H](CC(C)C)N(C)C(=O)[C@@H](C(C)C)NC(=O)[C@H](CC(C)C)N(C)C(=O)[C@@H](C)N(C)C1=O [Compound ZY, [(5R,6R,7S)-6-hydroxy-5-methyl-7-(methylamino)-1-(2-methoxyethylamino)-1-oxo-octanoic acid]1[(R)-methyl-Sar]3 cyclosporin A] | Water Solubility Assay, concentration at which the compound remains in solution ([3]; 35 mM HEPES pH 7.8, 1% DMSO, 25 °C, 18 h): 75 to 100 µM
4.1 nM | CCC1NC(=O)C(C(O)C(C)CCCC(=O)NCCc2c[nH]cn2)N(C)C(=O)C(C(C)C)N(C)C(=O)C(CC(C)C)N(C)C(=O)C(CC(C)C)N(C)C(=O)C(C)NC(=O)C(C)NC(=O)C(CC(C)C)N(C)C(=O)C(C(C)C)NC(=O)C(CC(C)C)N(C)C(=O)C(C)N(C)C1=O [Compound Y, [(5R,6R,7S)-6-hydroxy-5-methyl-7-(methylamino)-1-(2-{1H-imidazol-4-yl}-ethylamino)-1-oxo-octanoic acid]^1[(R)-methyl-Sar]^3 cyclosporin A] | solubility at 18 h [3, 6]: >100 µM
5 nM | CC[C@H]1NC(=O)[C@@H]([C@H](O)[C@H](C)CCCC(=O)N2CCN(C)CC2)N(C)C(=O)[C@@H](C(C)C)N(C)C(=O)[C@@H](CC(C)C)N(C)C(=O)[C@@H](CC(C)C)N(C)C(=O)[C@H](C)NC(=O)[C@@H](C)NC(=O)[C@@H](CC(C)C)N(C)C(=O)[C@@H](C(C)C)NC(=O)[C@H](CC(C)C)N(C)C(=O)[C@@H](C)N(C)C1=O [Compound T, [(5R,6R,7S)-6-hydroxy-5-methyl-7-(methylamino)-1-(4-methylpiperazin-1-yl)-1-oxo-octanoic acid]^1[(R)-methyl-Sar]^3 cyclosporin A] | solubility at 18 h [3, 6]: >100 µM
120 nM | CC[C@H]1NC(=O)[C@@H]([C@H](O)[C@H](C)CCN2CCNC(=O)C2)N(C)C(=O)[C@@H](C(C)C)N(C)C(=O)[C@@H](CC(C)C)N(C)C(=O)[C@@H](CC(C)C)N(C)C(=O)[C@H](C)NC(=O)[C@@H](C)NC(=O)[C@@H](CC(C)C)N(C)C(=O)[C@@H](C(C)C)NC(=O)[C@H](CC(C)C)N(C)C(=O)CN(C)C1=O [Compound NN] | –
